The numbers were not newly measured in US20130237556A1, “BERBERINE ALKALOID AS A MEDICAMENT FOR PREVENTION AND TREATMENT OF NEURAL DISEASE” (HONG KONG BAPTIST UNIVERSITY, priority 2012, published 2013), which cites them from elsewhere.

For this data set, the system named is activated microglia. The note with it: ibuprofen-treated animals; cited from earlier work.

In the case of `CC(C)Cc1ccc(C(C)C(=O)O)cc1` (stereo not shown) [ibuprofen], the “decrease in activated microglia” value is 57%.
